What all share (assay type): tissue-based
The target in assay [1] is Histamine H1 receptor (Cavia porcellus, UniProt P31389). The assay can be described thus: Inhibition of H1 receptor in Cavia porcellus Hartley (guinea pig) ileum assessed as inhibition of histamine-induced spasms incubated 2 min prior histamine-challenge.
The target in assay [2] is Histamine H1 receptor (Cavia porcellus) (UniProt P31389). The assay can be described thus: Inhibition of H1 receptor in Cavia porcellus Hartley (guinea pig) ileum assessed as inhibition of histamine-induced spasms incubated 2 min prior histamine-challenge relative to acrivastine.
Sequence of Histamine H1 receptor (Cavia porcellus) (P31389 whole entry): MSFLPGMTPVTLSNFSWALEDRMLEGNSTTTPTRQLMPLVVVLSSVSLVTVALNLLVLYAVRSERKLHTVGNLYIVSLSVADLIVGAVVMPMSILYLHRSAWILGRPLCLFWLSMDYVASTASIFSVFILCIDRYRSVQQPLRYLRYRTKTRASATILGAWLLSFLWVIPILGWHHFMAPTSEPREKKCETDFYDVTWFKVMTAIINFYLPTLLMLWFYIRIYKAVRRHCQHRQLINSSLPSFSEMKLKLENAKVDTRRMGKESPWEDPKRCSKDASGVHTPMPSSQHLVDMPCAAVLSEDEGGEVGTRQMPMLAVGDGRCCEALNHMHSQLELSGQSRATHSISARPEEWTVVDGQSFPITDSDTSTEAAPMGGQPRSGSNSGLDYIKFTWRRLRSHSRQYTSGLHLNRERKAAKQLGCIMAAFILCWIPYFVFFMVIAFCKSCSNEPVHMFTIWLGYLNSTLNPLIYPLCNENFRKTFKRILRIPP
The target is the same in assay [3]. The assay can be described thus: Inhibition of H1 receptor in Cavia porcellus Hartley (guinea pig) ileum assessed as inhibition of histamine-induced spasms incubated at 10 '-2 M 2 min prior histamine-challenge.
For assay [4] the target is unchanged. The assay can be described thus: Inhibition of H1 receptor in Cavia porcellus Hartley (guinea pig) ileum assessed as inhibition of histamine-induced spasms incubated at 10 '-3 M 2 min prior histamine-challenge.
Assay [5] has the same target. The experiment in a line: Inhibition of H1 receptor in Cavia porcellus Hartley (guinea pig) ileum assessed as inhibition of histamine-induced spasms incubated at 10 '-4 M 2 min prior histamine-challenge.
Assay [6] shares this target. The assay can be described thus: Inhibition of H1 receptor in Cavia porcellus Hartley (guinea pig) ileum assessed as inhibition of histamine-induced spasms incubated at 10 '-5 M 2 min prior histamine-challenge.
The target is the same in assay [7]. The experiment in a line: Inhibition of H1 receptor in Cavia porcellus Hartley (guinea pig) ileum assessed as inhibition of histamine-induced spasms incubated at 10 '-6 M 2 min prior histamine-challenge.

Sequence of Histamine H1 receptor (P31389 whole entry): as above

With `CC(CO)(CO)NCCCN1C(=O)c2ccccc2C1=O`, the 50% inhibitory concentration (IC50) in assay [1] amounted to 80.2 µM. Besides, the Emax in assay [2] stood at 54%. The inhibition worked out at 100% in assay [3]; 69.2% in assay [4]; 54% in assay [5]; 28.4% in assay [6]; 5.45% in assay [7].

Regarding `CC(C)(CO)NCC(C)(C)N1C(=O)c2ccccc2C1=O`, the Emax in assay [2] was determined as 20%. The inhibition was 100% in assay [3]; 62.9% in assay [4]; 20% in assay [5]; 0% in assay [6]; 0% in assay [7].

As to `Cc1ccc(/C(=C\CN2CCCC2)c2cccc(/C=C/C(=O)O)n2)cc1` [ACRIVASTINE], in assay [1], the half-inhibitory concentration (IC50) is 6.12 µM. In addition, in assay [2], the maximal response (Emax) is 100%. In addition, the inhibition in assay [3] was found to be 100%; in assay [4] it was 100%; in assay [5] it was 100%; in assay [6], 60%; in assay [7], 16.6%.

On to `CC(C)(CO)NC=C1C(=O)NC(=O)NC1=O`, for which, in assay [1], the 50% inhibitory concentration (IC50) is 6.15 µM. In assay [2], the maximal response (Emax) was determined as 65%. The inhibition in assay [3] amounted to 100%; in assay [4], 85.5%; in assay [5], 65%; in assay [6], 40%; in assay [7], 16.7%.

In the case of `CC(C)CNCC(C)(C)N1C(=O)c2ccccc2C1=O`, the maximum response (Emax) in assay [2] is 18%. Further, the inhibition came out at 22% in assay [3]; 20% in assay [4]; 18% in assay [5]; 16% in assay [6]; 14% in assay [7].

Consider `CCOC(=O)N1CCN(C=C2C(=O)NC(=O)NC2=O)CC1`, for which the maximal response (Emax) in assay [2] was determined as 25%. In addition, the inhibition in assay [3] was 25%; in assay [4], 25%; in assay [5], 25%; in assay [6], 9%; in assay [7] it was 8%.

Regarding `CC(CO)(CO)NCc1nc2ccccc2[nH]1`, in assay [2], the Emax was determined as 14.2%. The inhibition in assay [3] was determined as 85.7%; in assay [4], 50%; in assay [5], 14.2%; in assay [6], 11.2%; in assay [7], 0%.

`O=C1NC(=O)C(=CN2CCOCC2)C(=O)N1`: the IC50 in assay [1] amounted to 86.8 µM. In assay [2], the Emax turned out to be 100%. Moreover, the inhibition in assay [3] was found to be 100%; in assay [4], 100%; in assay [5], 100%; in assay [6] it was 57.3%; in assay [7], 12.8%.

For `CC(CO)(CO)Nc1nc2ccccc2[nH]1`, the IC50 in assay [1] was found to be 28.9 µM. In assay [2], the Emax amounted to 55%. Further, the inhibition in assay [3] came to 100%; in assay [4], 69%; in assay [5], 55%; in assay [6], 29.6%; in assay [7] it was 7.16%.

With `OCCN(Cc1nc2ccccc2[nH]1)c1nc2ccccc2[nH]1`, the Emax in assay [2] came to 11%. For the same molecule, the inhibition in assay [3] turned out to be 65.5%; in assay [4], 60%; in assay [5], 11%; in assay [6], 10.5%; in assay [7] it was 0%.

As to `O=C1NC(=O)C(=CNC2CCCCC2)C(=O)N1`, in assay [1], the IC50 was found to be 7 µM. In assay [2], the Emax was determined as 100%. The inhibition in assay [3] amounted to 100%; in assay [4] it was 100%; in assay [5] it was 100%; in assay [6], 55.3%; in assay [7] it was 20%.

On to `O=C1c2ccccc2C(=O)N1CC(O)CNC1CCCCC1` (racemic), for which, in assay [2], the Emax is 37.5%. Moreover, the inhibition in assay [3] was 78.3%; in assay [4], 66%; in assay [5], 37.5%; in assay [6], 33.3%; in assay [7] it was 12.9%.

Turning to `CC(C)(CO)N1C(=O)c2ccccc2C1=O`, the Emax in assay [2] came to 0%. Further, the inhibition in assay [3], in assay [4], in assay [5], in assay [6] and in assay [7] was 0% throughout.

A word on the IC50: it is the concentration that inhibits the measured activity by half. A word on the Emax: it is the size of the effect at its maximum, as opposed to the concentration needed. By inhibition is commonly meant the relative decrease from the control value, in per cent.

For the origin of these results see ChEMBL document CHEMBL3046530, “Novel potential nonsedating H1 antagonists related to the gauche rotamer of PROS-NH-histamine” (Med Chem Res, 2009).
